{"source": "patent EP1310250A1", "about": "“Use of the compound 2-methoxyphenyl-1-methyl-5P-methylbenzoyl-pyrrol-2-acetamido acetate for the production of an antiinflammatory drug with prevention of gastric hypersecretion and renal impairment” (MEDOSAN Ricerca S.r.l., priority 1997, dated 1999)", "key": {"[1]": {"tested_on": "carrageenin-induced paw oedema", "assay": "Determination of ID50, carrageenin-induced paw oedema", "assay_type": "in vivo, rat", "conditions": "five times the oral ID50 for oedema inhibition, 2 h after carrageenin", "method": "ID50, relative to the products under examination (considered in table 1), has been evaluated using the anti-inflammatory response to carrageenin-induced paw oedema (according to Wong et al, J Pharmacol Exp, 1973:1855; pages 127-138). The products, suspended in 1% CMC, were administered orally in a total volume of 5 ml/rat. 1 h later, 0.1 ml of 1% carrageenin sterile solution was injected into the hind subplantar aponeurosis. Volume of the paw was measured immediately prior to injection of the phlogogen and 2 h thereafter, by means of a plethysmograph. The percentage of inhibition of oedema was calculated as follows: 1 - ΔV treated/ΔV control x 100 [formula] where ΔV = final V - initial V."}, "[2]": {"tested_on": "isolated, perfused, immature rat stomach", "assay": "Antisecretive activity in vitro, isolated perfused immature rat stomach", "conditions": "for Δacid: mean±S.E.", "description": "Male Wistar rats, 250±10 g b.w. (Charles River, Calco, Como, Italy), quarantined for five days prior to the beginning of the trial and divided into groups of 3 animals per cage, were used for determination of gastric lesions and of ID50 determination. Immature male Wistar rats, 30-45 g b.w. (Harlan Nossan, Milano) were used for the determination of the antisecretory effect on isolated rat stomach. The guinea-pigs used were the Dunkin Hartley guinea-pigs (Harlan Nossan, Milano, Italy).\nAt the beginning, the isolated, perfused, immature rat stomach, treated externally with the study product, was used. We preferred to use the isolated stomach in toto rather than strips (B.R. No. 18, 19 and 20) in order not to exclude a section of the stomach (the antrum), unimportant for acid secretion but very important for the secretion of bicarbonates and bioactive peptides (b.r. No. 21, 22). The results were encouraging, since amtolmetin guacyl inhibited acid production stimulated by the three classic agonists (histamine, acetilcholine and gastrin) both using varying doses of agonist or varying doses of amtolmetin guacyl (Table 5).\nThe results are expressed as mean±S.E."}, "[3]": {"conditions": "in vivo"}, "[4]": {"tested_on": "fertility, embriotoxicity and teratogenicity", "assay": "Fertility, embryotoxicity and teratogenicity studies, rat", "assay_type": "in vivo"}, "[5]": {"tested_on": "fertility, embriotoxicity and teratogenicity", "assay": "Fertility, embryotoxicity and teratogenicity studies, rabbit", "assay_type": "in vivo"}, "human lymphocites": {"tested_on": "human lymphocites", "assay": "Chromosome aberrations in lymphocytes cultivated in vitro", "assay_type": "cell-based"}, "rat bone marrow": {"tested_on": "rat bone marrow", "assay": "Micronucleus test", "assay_type": "in vivo"}, "H2 receptors": {"target": "T1, H2 receptors (Cavia porcellus, UniProt P47747)", "T1 construct": "an organ in which only H2 receptors were present (guinea-pig atrium); from tissue; host or cells: guinea-pig atrium (isolated organ)", "T1 sequence (P47747 whole entry)": "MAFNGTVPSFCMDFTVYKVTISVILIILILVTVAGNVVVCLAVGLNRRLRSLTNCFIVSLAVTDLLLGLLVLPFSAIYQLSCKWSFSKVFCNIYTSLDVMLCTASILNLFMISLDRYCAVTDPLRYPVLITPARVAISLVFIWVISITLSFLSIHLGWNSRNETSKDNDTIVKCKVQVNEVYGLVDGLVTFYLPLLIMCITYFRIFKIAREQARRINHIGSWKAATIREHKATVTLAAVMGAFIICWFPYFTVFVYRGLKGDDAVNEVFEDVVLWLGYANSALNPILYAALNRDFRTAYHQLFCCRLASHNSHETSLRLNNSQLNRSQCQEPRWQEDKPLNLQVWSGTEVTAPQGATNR", "assay": "Effect on H2 receptors of isolated atrium, histamine stimulation", "conditions": "guinea-pig atrium, stimulation by histamine (fig. 5)", "description": "On the basis of the above series of observations, we decided to study the pharmacological behaviour of a number of widely used NSAIDs (including amtolmetin guacyl) towards the gastric mucosa in the rat, as previously described. […] The first hypothesis was that we were deling with an anti-H2 drug, given the fact that its potency could be compared with that of cimetidine."}, "[6]": {"tested_on": "guinea-pig isolated ileum", "assay": "Intestinal motility in isolated ileum, various agonists", "conditions": "all of the traditional agonists: histamine, acetylcholine, serotonin (fig. 7, 8 and 9)", "description": "In parallel we also studied the possible effect on intestinal motility in the guinea-pig isolated ileum (b.r. No. 29) using various agonists (fig. 7, 8 and 9)."}, "[7]": {"tested_on": "CGRP (calcitonin gene related peptide)", "assay": "Peptone-stimulated gastric acid secretion after treatment with CGRP8-37", "assay_type": "in vivo, rat", "conditions": "peptone-stimulated gastric acid secretion (fig. 14)"}, "rheumatoid arthritis": {"tested_on": "rheumatoid arthritis", "assay": "Clinical trials: antiphlogistic activity in rheumatoid arthritis", "assay_type": "in vivo, man", "set-up": "key to Antiphlogistic activity evaluation: excellent ^++++; good ^+++; poor ^++", "description": "Amtolmetin guacyl was compared with ibuprofen, indomethacin, piroxicam and tolmetin."}, "[8]": {"tested_on": "extra-articular rheumatism", "assay": "Clinical trials: antiphlogistic activity in extra-articular rheumatism", "assay_type": "in vivo, man", "set-up": "key: excellent ^++++; good ^+++; poor ^++", "description": "In extra-articular rheumatism amtolmetin guacyl was compared with diclofenac, naproxen and piperazine propionate."}, "post-operative pain": {"tested_on": "post-operative pain", "assay": "Clinical trials: analgesic properties in post-operative pain", "assay_type": "in vivo, man", "set-up": "key to Antiphlogistic activity evaluation: excellent ^++++; good ^+++; poor ^++", "method": "As reported in Table 14, the analgesic properties of amtolmetin guacyl were tested in postoperative pain with good results. […] The peak effect is obtained only after 2 hours, and it is maintained for 6 hours."}, "COX1 (cyclooxygenase 1)": {"target": "T2, COX1 (cyclooxygenase 1) (Rattus norvegicus, UniProt Q63921)", "T2 construct": "from tissue; host or cells: rat (in vivo pharmacological studies; tissue not given)", "T2 sequence (Q63921 27-602)": "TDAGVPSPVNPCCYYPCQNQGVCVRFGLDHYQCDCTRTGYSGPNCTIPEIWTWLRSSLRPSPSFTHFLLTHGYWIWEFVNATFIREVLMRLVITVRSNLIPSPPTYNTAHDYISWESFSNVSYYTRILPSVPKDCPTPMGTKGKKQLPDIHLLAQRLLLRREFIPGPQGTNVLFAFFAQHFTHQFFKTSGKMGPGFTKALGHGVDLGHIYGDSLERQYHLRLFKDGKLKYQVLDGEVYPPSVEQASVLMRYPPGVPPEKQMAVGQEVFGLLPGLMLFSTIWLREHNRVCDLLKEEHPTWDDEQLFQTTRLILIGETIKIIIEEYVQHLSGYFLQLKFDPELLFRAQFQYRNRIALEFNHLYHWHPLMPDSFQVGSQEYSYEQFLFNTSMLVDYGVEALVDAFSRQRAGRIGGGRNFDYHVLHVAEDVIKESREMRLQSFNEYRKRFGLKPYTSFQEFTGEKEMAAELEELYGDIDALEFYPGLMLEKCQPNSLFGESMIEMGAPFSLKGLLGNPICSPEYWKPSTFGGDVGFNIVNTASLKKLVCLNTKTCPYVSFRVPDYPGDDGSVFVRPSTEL", "assay": "Pharmacological studies in rats: COX1 inhibition", "assay_type": "in vivo", "conditions": "studies conducted in rats"}, "COX2 (cyclooxygenase 2)": {"target": "T3, COX2 (cyclooxygenase 2) (Rattus norvegicus, UniProt P35355)", "T3 construct": "from tissue; host or cells: rat (in vivo pharmacological studies; tissue not given)", "T3 sequence (P35355 18-604)": "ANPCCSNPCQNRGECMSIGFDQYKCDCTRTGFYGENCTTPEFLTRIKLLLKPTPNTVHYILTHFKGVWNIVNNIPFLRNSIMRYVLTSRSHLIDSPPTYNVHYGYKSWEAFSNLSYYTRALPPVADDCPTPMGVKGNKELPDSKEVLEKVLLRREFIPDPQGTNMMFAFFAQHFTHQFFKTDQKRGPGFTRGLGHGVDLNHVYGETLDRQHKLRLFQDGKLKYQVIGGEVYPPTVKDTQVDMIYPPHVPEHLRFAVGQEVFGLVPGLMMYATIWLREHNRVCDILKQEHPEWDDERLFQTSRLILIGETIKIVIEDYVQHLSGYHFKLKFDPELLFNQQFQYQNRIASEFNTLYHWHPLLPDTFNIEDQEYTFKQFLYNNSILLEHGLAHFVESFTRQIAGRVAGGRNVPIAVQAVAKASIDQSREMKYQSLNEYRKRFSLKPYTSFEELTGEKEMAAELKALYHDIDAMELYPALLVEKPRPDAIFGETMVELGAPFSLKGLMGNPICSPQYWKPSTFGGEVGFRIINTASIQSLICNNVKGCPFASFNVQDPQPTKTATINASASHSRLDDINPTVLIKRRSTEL", "assay": "Pharmacological studies in rats: COX2 inhibition", "assay_type": "in vivo", "conditions": "studies conducted in rats"}, "basal acid secretion": {"tested_on": "basal acid secretion", "assay": "Basal acid secretion", "conditions": "amtolmetin guacyl per se"}, "gastric mucosa": {"tested_on": "gastric mucosa", "assay": "Histological evaluation of the gastric mucosa by an independent laboratory", "conditions": "oral gavage: amtolmetin guacyl 50 mg/kg, diclofenac 7.5 mg/kg, tolmetin 66.6 mg/kg", "quoted_text": "In order to obtain a histological evaluation of the results obtained in our laboratories, an independent laboratory was provided with identical samples of the material evaluated by us, under totally blind conditions.\nControls received the vehicle only, also by oral gavage. 4 h after the final administration the animals were killed by ether overdose and the stomachs removed, rinsed in saline and immersed in formalin 4%."}, "[9]": {"conditions": "agonist Acetylcholine 10^-3 M, antagonist 10^-4 M"}, "[10]": {"conditions": "agonist Gastrin 6x10^-7 M, antagonist 10^-4 M"}, "[11]": {"conditions": "agonist Histamine 10^-3 M, antagonist 10^-4 M"}, "[12]": {"conditions": "agonist Histamine 10^-4 M, antagonist 10^-4 M"}, "[13]": {"conditions": "agonist Histamine 10^-4 M, antagonist 10^-5 M"}}, "data": [{"smiles": "COc1ccccc1OC(=O)CNC(=O)Cc1ccc(C(=O)c2ccc(C)cc2)n1C", "note": "[amtolmetin guacyl, 2-methoxyphenyl-1-methyl-5p-methylbenzoylpyrrol-2-acetamido acetate]", "values": [{"measurement": "Ratio to rat dosage (mg/kg) (ID50 mg/kg x5)", "setting": "[1]", "result": 100, "unit": "mg/kg"}, {"measurement": "% inhib.", "setting": "[2]; [9]", "result": 21.5, "unit": "%"}, {"measurement": "Δacid", "setting": "[2]; [9]", "result": "71.2 ± 5.4", "unit": "nmol/min"}, {"measurement": "% inhib.", "setting": "[2]; [10]", "result": 52.1, "unit": "%"}, {"measurement": "Δacid", "setting": "[2]; [10]", "result": "30.7 ± 3.7", "unit": "nmol/min"}, {"measurement": "% inhib.", "setting": "[2]; [11]", "result": 57.7, "unit": "%"}, {"measurement": "Δacid", "setting": "[2]; [11]", "result": "17.9 ± 2.1", "unit": "nmol/min"}, {"measurement": "% inhib.", "setting": "[2]; [12]", "result": 62.6, "unit": "%"}, {"measurement": "Δacid", "setting": "[2]; [12]", "result": "19.2 ± 5.4", "unit": "nmol/min"}, {"measurement": "% inhib.", "setting": "[2]; [13]", "result": 68.7, "unit": "%"}, {"measurement": "Δacid", "setting": "[2]; [13]", "result": "16.1 ± 5.4", "unit": "nmol/min"}, {"measurement": "drug tolerability", "setting": "[3]", "result": "excellent drug tolerability"}, {"measurement": "fertility, embriotoxicity and teratogenicity", "setting": "[4]", "result": "demonstrated the safety product"}, {"measurement": "fertility, embriotoxicity and teratogenicity", "setting": "[5]", "result": "demonstrated the safety product"}, {"measurement": "chromosomic aberrations", "setting": "human lymphocites", "result": "absence of amtolmetin guacyl-related damage"}, {"measurement": "micronucleus test", "setting": "rat bone marrow", "result": "absence of amtolmetin guacyl-related damage"}, {"measurement": "interference with the H2 receptors", "setting": "H2 receptors", "result": "did not interfere with the H2 receptors"}, {"measurement": "intestinal motility", "setting": "[6]", "result": "decrease in motility"}, {"measurement": "effect of the CGRP antagonist CGRP8-37 on the activity on gastric secretion", "setting": "[7]", "result": "blockage of the amtolmetin guacyl - related activity on gastric secretion"}, {"measurement": "Evaluation of antiphlogistic activity", "setting": "rheumatoid arthritis; 150 patients, 30 days, versus Ibuprofen, Indomethacin, Piroxicam, Tolmetin", "result": "Amtolmetin guacyl demonstrated statistical significant activity more rapid and more marked when compared to the reference NSAIDs in rheumatoid arthritis."}, {"measurement": "Antiphlogistic activity evaluation", "setting": "rheumatoid arthritis; Rheumatoid arthritis", "result": "^++++"}, {"measurement": "Antiphlogistic activity evaluation", "setting": "[8]", "result": "^+++"}, {"measurement": "Antiphlogistic activity evaluation", "setting": "post-operative pain", "result": "^++++"}, {"measurement": "time for which the effect is maintained", "setting": "post-operative pain", "result": 6, "unit": "h"}, {"measurement": "Duration", "setting": "post-operative pain; 1200mg, 100 patients", "result": 360, "unit": "min"}, {"measurement": "Latency", "setting": "post-operative pain; 1200mg, 100 patients", "result": 30, "unit": "min"}, {"measurement": "Max. time effect", "setting": "post-operative pain; 1200mg, 100 patients", "result": 180, "unit": "min"}, {"measurement": "time at which the antalgic effect is already evaluable", "setting": "post-operative pain; following administration", "result": "30 '"}, {"measurement": "inhibition of COX1", "setting": "COX1 (cyclooxygenase 1)", "result": "inhibition"}, {"measurement": "inhibition of COX2", "setting": "COX2 (cyclooxygenase 2)", "result": "inhibition"}, {"measurement": "effect on basal acid secretion", "setting": "basal acid secretion", "result": "fails to modify basal acid secretion"}, {"measurement": "Histology", "setting": "gastric mucosa", "result": "no histological lesions"}, {"measurement": "Macroscopic findings", "setting": "gastric mucosa; single animals", "result": 0}, {"measurement": "Microscopic findings", "setting": "gastric mucosa; single animals", "result": 0}]}]}
